The values below come from patent publication US9040673B2, “Synthesis and identification of novel RSK-specific inhibitors” (University of Virginia Patent Foundation, priority 2009, dated 2015).

In assay [1] the test system is human umbilical vein endothelial cells (HUVEC). The experiment in a line: HUVEC wound migration assay. The following applies: 60 μM, 1 hr prior to wounding; up to 20 hr. The class given is cell-based. An excerpt:
In these experiments, HUVEC were cells were subcultured to confluence in 35-mm plates. […] Scratches were made in the monolayer of cells using sterile, disposable micropipette tips. Images were captured—2 hr, 10 hr, and 20 hr after wounding. By 10 hr after wounding, the vehicle-treated cells at the wound edge have migrated toward the wound. Gaps in the monolayer behind the wound edge are apparent. The SL0101-treated cells have recovered from the wounding, however they show little signs of polarization toward the wound and no involvement of the cells behind the wound edge. At 20 hr, the vehicle-treated cells have migrated into the wound yet the gaps are still present behind the wound edge. The cells at the wound edge in the SL0101-treated well appear to have increased in size to fill the wound rather than migrate into the wound and the monolayered cells behind the wound edge remain tightly packed unlike the vehicle-treated cells. Accordingly the data support the premise that RSK inhibitors are useful tools to stop endothelial cell migration.

In another assay the test system is Y. pseudotuberculosis. The class given is cell-based, Yersinia pseudotuberculosis. Conditions: 60 μM, liquid LB medium.
The test system of a further assay is macrophages. The class given is cell-based.
In assay [2] the test system is RSK activity (eEF2 phosphorylation). The experiment in a line: eEF2 phosphorylation in J774A.1 macrophages. The class given is cell-based, murine. Conditions: J774A.1 cells. The source says: The translocation step in mRNA translation is mediated by eEF2. […] This phosphorylation is produced by a highly specific kinase, EF2 kinase (EF2K). RSK phosphorylates and inactivates EF2K in response to mitogenic stimulations, which leads to a decrease in eEF2 phosphorylation (Wang, et al. Embo J 20:4370-9). Under conditions in which RSK activity is low, as during serum deprivation, eEF2 is phosphorylated by the active EF2K. However, stimulation of RSK activity by mitogens such as phorbol dibutyrate (PDB) results in reduced phosphorylation of eEF2 due to inactivation of EF2K by RSK. Therefore, the phosphorylation state of eEF2 is an indicator of RSK activity. […] The levels of total eEF2 were not altered by any of the treatments.

Assay [3] deals with NIH/3T3 parental cell line. The experiment in a line: proliferation of parental NIH/3T3 cell line. In kind it is cell-based. An excerpt: The importance of MAPK to proliferation and oncogenesis is well established. However, the role that RSK plays in these processes has not been examined. […] SL0101-1 produced striking morphology changes in the transformed cells but not in the parental cell line. The vehicle control treated Ha-Ras transformed cells were elongated whereas in response to SL0101-1 the cells became much larger and flatter, appearing more like the parental cells, or like Ha-Ras transformed cells treated with U0126.
(§1) Cell Culture. For proliferation studies cells were seeded at 2500 to 5000 cells per well in 96 well tissue culture plates in the appropriate medium as described by American Type Culture Collection. After 24 hr, the medium was replaced with medium containing compound or vehicle as indicated. Cell viability was measured at indicated time points using CellTiter-Glo™ assay reagent (Promega) according to manufacturer's protocol. For in vivo inhibition studies, cells were seeded at 2.5×10^5 cells/well in 12 well cell culture clusters. After 24 hr, the cells were serum starved for 24 hr then incubated with compound or vehicle for 3 hr prior to a 30 min PDB stimulation. Cells were lysed as previously described (J. Biol. Chem. 273, 13317-13323 (1998)). The lysates were normalized for total protein, electrophoresed and immunoblotted. […]

A further assay deals with CaLu-1 cells. The experiment in a line: CaLu-1 wound migration assay. In kind it is cell-based, human. Conditions: 60 μM, 24 hr after wounding. Here is the method: CaLu-1 cells were sub-cultured to confluence in 35-mm plates. […] Scratches were made in the monolayer of cells using sterile, disposable micropipette tips. Images were captured either immediately following the wounding, 6 hr, or 24 hours after wounding. At the point of wounding, the cells at the wound edge show increased light refraction indicating damage. By 6 hr after wounding, the vehicle-treated cells at the wound edge present wide lamella (indicated by arrows) extending toward the direction of the wound. […] At 24 hr, the vehicle-treated cells have migrated into the wound and are enlarged to re-form the confluent monolayer.

The next assay relates to MCF-7 cells. The experiment in a line: MCF-7 cell proliferation (CellTiter-Glo cell viability). The class given is cell-based, human.
The subject of another assay is MAPK, MEK, Raf and PKC. Nature of the assay: effect on upstream kinases of PDB-stimulated RSK phosphorylation in intact cells (immunoblot). In kind it is cell-based, human. The protocol:
(§2) To determine whether SL0101-1 inhibits RSK in intact cells, phosphorylation of p140, a RSK substrate of unknown function, was examined in a human breast cancer cell line, MCF-7. MCF-7 and MCF-10A cells were pre-incubated with vehicle, 50 μM U0126 or the indicated concentration of SL0101-1 for 3 hr (FIG. 8D). Cells were treated with 500 nM PDB for 30 min prior to lysis. Protein concentration of lysates was measured and lysates were electrophoresed, transferred and immunoblotted. […] Pre-incubation of cells with 100 μM SL0101-1 abrogates phorbol dibutyrate (PDB)-induced p140 phosphorylation as does 50 μM U0126, a MEK inhibitor.
as §1, with “(1998)).” for “(1998)). The lysates were normalized for total protein, electrophoresed and immunoblotted.”
(In western blotting, separated proteins are transferred to a membrane and probed.)

Assay [4] has as its system Yersinia pseudotuberculosis. In kind it is cell-based. Conditions: 60 μM, 4 hours prior to infection (MOI=25).
Another assay relates to p140, a RSK substrate. Nature of the assay: PDB-induced p140 phosphorylation in MCF-10A cells (immunoblot). The class given is cell-based, human. Here is the method:
as §2
as §1, with “(1998)).” for “(1998)). The lysates were normalized for total protein, electrophoresed and immunoblotted.”

The next assay relates to J774A.1 cells. The experiment in a line: LPS-stimulated factor expression in J774A.1 cells (immunoblot). Conditions: 60 μM, 1 μg/ml LPS, 24 hours. In kind it is cell-based, murine. The source says: FIGS. 2A & 2B Analysis of LPS stimulated cytokine expression. […] Reactions were terminated with 2×-SDS lysis buffer at indicated time points and the lysates were immunoblotted.
FIGS. 3A & 3B RSK inhibition abrogates LPS-induced iNOS expression. […] Twenty-four hours after treatment, reactions were terminated with 2×-SDS lysis buffer and the lysates were immunoblotted.
LPS activation of macrophages results in secretion of factors that stimulate the innate immune system. […] Twenty-four hours after LPS treatment the cells were lysed as previously described (Traish, et al., 1998. J. Biol. Chem. 273:13317-13323) in preparation for immunoblot analysis. Expression of the pro-inflammatory factors, TNFα, IL-1b, the anti-inflammatory factor, IL-10 and inducible nitric oxide synthase was examined by immunoblot of the cell lysates.

Take `CC(=O)O[C@@H]1[C@@H](OC(C)=O)[C@@H](O)[C@H](Oc2c(-c3ccc(O)cc3)oc3cc(O)cc(O)c3c2=O)O[C@H]1C` [SL0101, kaempferol 3-O-(3″,4″-di-O-acetyl-α-L-rhamnopyranoside)]: the “migration of HUVEC into wound” value in assay [1] is on record as “reduce the ability of the cells to migrate”. For the same compound, the “direct effect on growth of Y. pseudotuberculosis” value in the assay with Y. pseudotuberculosis is recorded as “does not directly affect the growth”. The “Y. pseudotuberculosis-induced actin rearrangement” value in the assay on macrophages is “actin rearrangement is not observed”. In addition, the peEF2 levels result in assay [2] is reported as “increases peEF2 levels”. In addition, the “proliferation of the parental line” value in [3] is given as “little effect on proliferation”. Further, the “migration of Calu-1 cells into wound” value with CaLu-1 cells was “have not migrated to close the wound”. Besides, the “inhibition of MCF-7 cell growth” value with MCF-7 cells (50 uM) was “similarly effective at inhibiting MCF-7 cell growth”. Besides, the “proliferation of MCF-7 cells” value in the assay on MCF-7 cells (50 μM (FIG. 8A)) is given as “inhibited proliferation”. Besides, the EC50 with MCF-7 cells (Homo sapiens, MCF7, read-out: EC50 of MCF-7 cell proliferation inhibition) is ~50 µM. The “phosphorylation of RSK2” value with MAPK, MEK, Raf and PKC is recorded as “does not effect the phosphorylation of RSK2”. Further, the “live bacteria extracted from treated macrophages” value in assay [4] is given as “fewer live bacteria are extracted”. Further, in the assay on p140, a RSK substrate, the “PDB-induced p140 phosphorylation” value was “prevented the PDB-induced p140 phosphorylation”. In addition, in the assay on J774A.1 cells, the “LPS-induced iNOS expression” value is “abrogated the induction of iNOS expression” and the “expression of TNFα, IL-1b, IL-10” value is “did not alter the expression”.
